Measured values reported in ChEMBL document CHEMBL1142932 (Bioorg Med Chem, 2007).

Key:
Adenosine receptor A3 = biological target: T1, Adenosine receptor A3 (Homo sapiens, UniProt P0DMS8); assay: Displacement of [3H]NECA from human recombinant adenosine A3 receptor expressed in HEK293T cells; type: cell-based, HEK-293T
T1 sequence (P0DMS8 whole entry): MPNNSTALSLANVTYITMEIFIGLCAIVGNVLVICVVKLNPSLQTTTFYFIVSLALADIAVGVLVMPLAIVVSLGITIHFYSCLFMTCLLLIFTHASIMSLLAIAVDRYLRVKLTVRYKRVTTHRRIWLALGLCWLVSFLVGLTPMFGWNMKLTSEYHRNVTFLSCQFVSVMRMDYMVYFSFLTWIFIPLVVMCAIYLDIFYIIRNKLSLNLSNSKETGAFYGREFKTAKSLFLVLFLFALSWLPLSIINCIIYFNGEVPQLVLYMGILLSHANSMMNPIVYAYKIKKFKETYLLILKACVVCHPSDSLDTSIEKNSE

Adenosine receptor A1 = biological target: T2, Adenosine receptor A1 (Homo sapiens, UniProt P30542); assay: Displacement of [3H]DPCPX from human recombinant adenosine A1 receptor expressed in HEK293T cells; type: cell-based, HEK-293T
T2 sequence (P30542 whole entry): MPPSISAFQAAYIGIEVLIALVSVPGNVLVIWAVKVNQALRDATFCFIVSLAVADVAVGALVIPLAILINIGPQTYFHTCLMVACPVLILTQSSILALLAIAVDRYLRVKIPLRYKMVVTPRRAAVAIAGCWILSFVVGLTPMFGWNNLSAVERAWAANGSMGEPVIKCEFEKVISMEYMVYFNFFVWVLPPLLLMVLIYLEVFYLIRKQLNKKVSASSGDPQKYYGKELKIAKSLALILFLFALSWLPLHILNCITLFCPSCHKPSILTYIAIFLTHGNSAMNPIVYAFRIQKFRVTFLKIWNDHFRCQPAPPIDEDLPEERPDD

[1] = biological target: T3, Adenosine receptor A3 (Homo sapiens) (UniProt P0DMS8); assay: Displacement of [3H]NECA from human recombinant adenosine A3 receptor expressed in HEK293T cells at 100 uM; type: cell-based; conditions: HEK-293T
T3 sequence (whole entry): T1 sequence (P0DMS8 whole entry)

Adenosine receptor A2a [2] = biological target: T4, Adenosine receptor A2a (Homo sapiens, UniProt P29274); assay: biochemical
Adenosine receptor A2a [3] = biological target: T4, Adenosine receptor A2a; assay: Displacement of [3H]CGS21680 from human recombinant adenosine A2A receptor expressed in HEK293T cells at 100 uM; type: cell-based; conditions: HEK-293T
[4] = biological target: T5, Adenosine receptor A1 (Homo sapiens) (UniProt P30542); assay: Displacement of [3H]DPCPX from human recombinant adenosine A1 receptor expressed in HEK293T cells at 100 uM; type: cell-based; conditions: HEK-293T
T5 sequence (whole entry): T2 sequence (P30542 whole entry)

T4 sequence (P29274 whole entry): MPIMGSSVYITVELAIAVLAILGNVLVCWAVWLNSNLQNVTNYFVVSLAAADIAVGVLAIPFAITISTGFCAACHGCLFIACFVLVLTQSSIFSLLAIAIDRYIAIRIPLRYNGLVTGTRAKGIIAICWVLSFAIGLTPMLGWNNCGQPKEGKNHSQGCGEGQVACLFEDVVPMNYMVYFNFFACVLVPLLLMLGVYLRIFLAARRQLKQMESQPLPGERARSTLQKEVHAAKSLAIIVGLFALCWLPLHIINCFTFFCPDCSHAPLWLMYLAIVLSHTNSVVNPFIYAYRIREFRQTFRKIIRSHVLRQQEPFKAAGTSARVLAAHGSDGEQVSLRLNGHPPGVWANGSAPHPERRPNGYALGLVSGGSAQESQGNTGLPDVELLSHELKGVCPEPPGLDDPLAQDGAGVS

SMILES: Cn1c(=O)c2[nH]c3cccnc3c2n(C)c1=O
- Ki (Adenosine receptor A3): 13.9 nM
- Ki (Adenosine receptor A1): 0.379 µM

SMILES: Cn1c(=O)c2[nH]c3cnccc3c2n(C)c1=O
- Ki (Adenosine receptor A3): 526 nM
- Ki (Adenosine receptor A1): 11.7 µM

SMILES: Cn1c(=O)c2c(ncn2C)n(C)c1=O
- Activity [1]: 9%

SMILES: Cn1c(=O)c2c(c3ccncc3n2C)n(C)c1=O
- Ki (Adenosine receptor A3): 3190 nM
- Ki (Adenosine receptor A2a [2]): 4.19 µM

SMILES: CN1CC(N(C)c2cccnc2)C(=O)N(C)C1=O (stereo unspecified)
- Activity (Adenosine receptor A2a [3]): 29%
- Activity [1]: 0.2%
- Activity [4]: 9%

SMILES: CN1CC(Nc2cccnc2)C(=O)N(C)C1=O (stereo unspecified)
- Activity (Adenosine receptor A2a [3]): 38%
- Activity [1]: 25%
- Activity [4]: 22%

SMILES: CN1C(=O)C(N)C(c2ccncc2Cl)N(C)C1=O (stereo unspecified)
- Activity (Adenosine receptor A2a [3]): 15%
- Activity [1]: 3%
- Activity [4]: 8%

SMILES: Oc1c(Br)cc2[nH]c3cnccc3c2c1Br
- Ki (Adenosine receptor A3): 2050 nM
- Ki (Adenosine receptor A1): 7.37 µM
- Ki (Adenosine receptor A2a [2]): 4.92 µM

SMILES: Cn1c(=O)c2c(c3ncccc3n2C)n(C)c1=O
- Ki (Adenosine receptor A3): 332 nM
- Ki (Adenosine receptor A1): 13.5 µM
